We go through 1 compound from patent US6470889B1 (B.H.B., L.C., priority 1999, dated 2002).

This data set is described as follows: Empiric porcine aortic contrast enhancement, dynamic CT at fixed mid-abdominal aortic level after i.v. injection. In kind it is in vivo, pig. The protocol: In order to test the mathematical solutions, a porcine study was conducted. All animal care and procedures performed were approved by the Institutional Animal Study Committee. […] Each session was separated by at least two days. Two pigs had all their sessions within a week, while the other two pigs had their first two and last sessions delays 4-5 weeks, which results in an increase in their weight to 35-40 kg in their last session. In each session, the pig was anesthetized, intubated, and underwent scanning for three or four sets of images obtained in random order. During scanning, each pig was ventilated with oxygen and low tidal volume to minimize breathing motion artifact. […] Each set of scans were 45-60 minutes apart to minimize the effect of prior contrast administration. All CT scanning was performed with a Somatom Plus-S scanner (Siemens Medical Systems, […].) using a one-second scanning time and a one-second interscan delay. Three types of injection schemes were tested: uniphasic, biphasic, and multiphasic. Biphasic injections were performed by a prior art power injector which was used in routine clinical CT scanning while uniphasic and multiphasic injections were conducted with a power injector which was invented for achieving the required protocols. This power injector was capable of delivering contrast medium in various uniphasic or multiphasic injection algorithms, as is explained in greater detail below. The multiphasic injection rate is determined by an initial injection rate and an exponential decay coefficient, as shown in FIG. 3. […] Most injections were performed with the initial injection rate of 2 mL/s. […] Three differential exponential decay coefficients (0.007, 0.017, 0.026) were tested. […] These were the three smallest discrete increments allowed in the prototype of the inventive power injector. Decay coefficient higher than 0.03 was not used because it was evident that a further increase in the coefficient would deviate further away from uniform vascular enhancements. A uniphasic injection was determined as being equivalent to a zero exponential decay coefficient where the injection rate remains constant at an initial injection rate throughout the injection duration. […] Approximately half of the total contrast volume was injected in each phase of the biphasic injections. […] Attenuation values of the aorta were measured from post-contrast scans (at the same level as the pre-contrast scans) using a circular region of interest (ROI) at the center of the aorta. Contrast enhancement was calculated as the absolute different in attenuation value between the pre- and post-contrast scans. For the data analysis, the injection duration (ID), the magnitude of peak aortic enhancement (PA), and the uniformity of enhancement (the duration of the enhancement achieved with 90% of the peak: 90% DCE) were evaluated. Means and standard deviations were also computed. The results are now explained.

[1] abbreviates: 25 kg pig, 50 mL of 282 mgI/mL contrast medium, uniphasic 2 mL/sec.
The mark [2] stands for this setting: four pigs, 50 mL, 2 mL/s initial injection rate, decay constant 0.017.
Setting [3] is: four pigs, 70 mL, 2 mL/s initial injection rate, decay constant 0.017.

Take `CNC(=O)c1c(I)c(NC(C)=O)c(I)c(C(=O)O)c1I.CNC[C@H](O)[C@@H](O)[C@H](O)[C@H](O)CO` [contrast medium, iothalmate meglumine]: under setting [1], the “magnitude of the peak aortic enhancement (empiric)” value is 250 HU and the “time to the peak aortic enhancement (empiric)” value stood at 26 s. Moreover, under “50 mL and 70 mL, 2 mL/s, decay constant 0.017”, the “pattern of aortic enhancement, multiphasic vs uniphasic injection” value is “more prolonged and uniform vascular enhancement than uniphasic injections”. Moreover, the “pattern of aortic enhancement, biphasic injection” value (70 mL, 2 mL/s for 17 sec then 1.0 mL/s for 36 sec) is reported as “two enhancement peaks with a valley in between”. Also, under setting [2], the “increase of 90% DCE (duration of enhancement achieved with 90% of the peak), multiphasic vs uniphasic injection, mean” value is reported as 81% and the “reduction of peak aortic enhancement (PA), multiphasic vs uniphasic injection, mean” value was 19%. For the same compound, under setting [3], the “decrease of peak aortic enhancement (PA), multiphasic vs uniphasic injection” value is 18% and the “increase of 90% DCE, multiphasic vs uniphasic injection” value is listed as 94%. Moreover, the “pattern of aortic enhancement, multiphasic exponential injection, decay constant 0.017” value (two pigs (25 kg, 40 kg), compared with decay constants 0.007 and 0.026) was “more uniform than with other injection protocols”.
